Assay results from patent publication US10654814B2, “Bicyclic hydroxamic acids useful as inhibitors of mammalian histone deacetylase activity” (KANCERA AB, priority 2015, dated 2020).
Structures can show the parent of a compound that is named as a salt.

What follows are compounds tested against HDAC6 (Homo sapiens (Human), UniProt Q9UBN7) (assay: HDAC6 in vitro enzymatic assay (fluorescence)). Conditions: Table 3; read-out: IC50 (nM) for inhibition of HDAC6.
Assay type: biochemical
Method: Biological Tests Method for Measurement of Enzymatic Activity of HDACs Materials & Methods
All Examples were tested in HDAC1,2,3,6 and 8 in vitro enzymatic assays. The assay principle is well known (Hauser et al. 2009, Bradner et al. 2010) and all necessary reagents like enzymes, substrates, developer and reference compounds are commercially available (see e.g. BPS Biosciences http://www.bpsbioscience.com/). Stock solutions (10 mM in DMSO) of compounds were serially diluted 1:3 in 11 concentrations with a top concentration of 200 μM for HDAC1,2,3 and 2 μM for HDAC6 and HDAC8. The enzymatic reactions were conducted in a mixture containing assay buffer, bovine serum albumin, HDAC substrate, and a test compound. After enzymatic reaction, developer was added and after an additional incubation time, fluorescence intensity was measured at an excitation wavelength of 360 nm and an emission wavelength of 460 nm. All experiments were performed in duplicate.

Sequence of HDAC6 (Q9UBN7 whole entry): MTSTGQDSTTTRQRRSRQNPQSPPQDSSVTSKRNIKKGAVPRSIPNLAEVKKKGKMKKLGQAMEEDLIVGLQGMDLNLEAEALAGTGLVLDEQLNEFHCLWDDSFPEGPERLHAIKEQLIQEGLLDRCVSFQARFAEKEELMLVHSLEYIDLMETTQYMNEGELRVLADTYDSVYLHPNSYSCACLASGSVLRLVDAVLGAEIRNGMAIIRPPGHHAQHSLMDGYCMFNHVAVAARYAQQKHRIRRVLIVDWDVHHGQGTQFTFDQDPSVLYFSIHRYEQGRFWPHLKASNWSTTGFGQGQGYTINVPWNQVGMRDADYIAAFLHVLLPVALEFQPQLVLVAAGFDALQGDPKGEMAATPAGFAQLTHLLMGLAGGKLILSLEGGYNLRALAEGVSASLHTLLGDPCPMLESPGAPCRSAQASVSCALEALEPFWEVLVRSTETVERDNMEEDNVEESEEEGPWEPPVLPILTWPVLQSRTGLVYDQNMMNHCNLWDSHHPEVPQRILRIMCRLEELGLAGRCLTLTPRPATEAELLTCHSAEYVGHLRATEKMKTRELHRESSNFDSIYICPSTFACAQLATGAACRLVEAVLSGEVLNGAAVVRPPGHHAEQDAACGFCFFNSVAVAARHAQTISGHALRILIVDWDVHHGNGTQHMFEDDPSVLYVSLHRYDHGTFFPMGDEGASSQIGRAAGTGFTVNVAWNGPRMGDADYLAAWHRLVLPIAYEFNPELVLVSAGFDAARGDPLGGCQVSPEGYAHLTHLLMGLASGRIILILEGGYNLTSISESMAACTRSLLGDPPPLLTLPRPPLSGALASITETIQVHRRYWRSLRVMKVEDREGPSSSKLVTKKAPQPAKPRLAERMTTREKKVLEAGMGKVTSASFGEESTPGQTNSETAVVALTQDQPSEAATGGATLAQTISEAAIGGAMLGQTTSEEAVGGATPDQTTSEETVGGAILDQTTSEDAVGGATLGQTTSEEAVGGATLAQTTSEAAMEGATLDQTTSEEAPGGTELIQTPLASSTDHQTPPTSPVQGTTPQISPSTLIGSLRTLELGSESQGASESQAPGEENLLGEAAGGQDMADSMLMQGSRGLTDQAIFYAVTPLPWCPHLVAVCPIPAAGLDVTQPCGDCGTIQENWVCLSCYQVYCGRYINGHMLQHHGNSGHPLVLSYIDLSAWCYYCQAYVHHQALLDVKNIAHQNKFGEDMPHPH

Question: For CN(C)C(=O)c1ccc(-c2cc3cc(C(=O)NO)ccc3s2)cc1 [Example 108, 2-[4-(dimethylcarbamoyl)phenyl]-N-hydroxy-1-benzothiophene-5-carboxamide], which IC50 is on record?
Answer: 35 nM

Question: How did the IC50 turn out when O=C(NO)c1ccc2sc(CO)nc2c1 [Example 271, N-Hydroxy-2-(hydroxymethyl)-1,3-benzothiazole-5-carboxamide] was run?
Answer: 37 nM

Question: How did the IC50 turn out when CC(C)CN(Cc1nc2cc(C(=O)NO)ccc2s1)CC(C)C [Example 274, 2-{[Bis(2-methylpropyl)amino]methyl}-N-hydroxy-1,3-benzothiazole-5-carboxamide trifluoroacetate] was run?
Answer: 16 nM

Question: With O=C(NO)c1ccc2oc(-c3ccc(Br)cc3)nc2c1 [Example 2, 2-(4-bromophenyl)-N-hydroxy-1,3-benzoxazole-5-carboxamide] as the compound, how does the IC50 read?
Answer: 4 nM

Question: How did the IC50 turn out when CC(C)c1ccc(-c2cc3ncc(C(=O)NO)cc3o2)cc1 [Example 115, N-Hydroxy-2-[4-(1-methylethyl)phenyl]furo[3,2-b]pyridine-6-carboxamide] was run?
Answer: 23 nM

Question: Which IC50 does the source give for Cn1c(N2CCC(Cc3ccccc3)CC2)nc2cc(C(=O)NO)ccc21 [Example 143, 2-(4-benzylpiperidin-1-yl)-N-hydroxy-1-methyl-1H-benzo[d]imidazole-5-carboxamide] here?
Answer: 7 nM

Question: How did the IC50 turn out when O=C(NO)c1ccc2oc(NCCc3ccccc3)nc2c1 [Example 45, N-hydroxy-2-[(2-phenylethyl)amino]-1,3-benzoxazole-5-carboxamide] was run?
Answer: 21 nM

Question: Which IC50 does the source give for O=C(NO)c1ccc2oc(Nc3ccccc3)nc2c1 [Example 42, N-Hydroxy-2-(phenylamino)-1,3-benzoxazole-5-carboxamide] here?
Answer: 14 nM

Question: How did the IC50 turn out when Cc1ccc(Nc2nc3cc(C(=O)NO)ccc3o2)cc1 [Example 263, N-hydroxy-2-[(4-methylphenyl)amino]-1,3-benzoxazole-5-carboxamide] was run?
Answer: 9 nM

Question: CC(C)c1ccc(-c2nc3ccc(C(=O)NO)cc3o2)cc1 [Example 49, N-Hydroxy-2-[4-(1-methylethyl)phenyl]-1,3-benzoxazole-6-carboxamide] was tested. Which IC50 did it give?
Answer: 9 nM

Question: CC1CCN(c2ccc(-c3nc4cc(C(=O)NO)ccc4o3)cn2)CC1 [Example 152, N-Hydroxy-2-[6-(4-methylpiperidin-1-yl)pyridin-3-yl]-1,3-benzoxazole-5-carboxamide trifluoroacetate] was tested. Which IC50 did it give?
Answer: 30 nM

Question: How did the IC50 turn out when CCc1ccc(-c2nc3cc(C(=O)NO)ccc3s2)cc1 [Example 82, 2-(4-Ethylphenyl)-N-hydroxy-1,3-benzothiazole-5-carboxamide] was run?
Answer: 11 nM

Question: CC(C)c1ccc(-c2nc3cc(C(=O)NO)ccc3o2)cc1F [Example 211, 2-[3-Fluoro-4-(1-methylethyl)phenyl]-N-hydroxy-1,3-benzoxazole-5-carboxamide] was tested. Which IC50 did it give?
Answer: 38 nM

Question: How did the IC50 turn out when CC(C)c1ccc(NCc2nc3cc(C(=O)NO)ccc3s2)cc1 [Example 275, N-Hydroxy-2-({[4-(1-methylethyl)phenyl]amino}methyl)-1,3-benzothiazole-5-carboxamide] was run?
Answer: 8 nM

Question: How did the IC50 turn out when O=C(NO)c1ccc2oc(N3CCc4ccccc4C3)nc2c1 [Example 46, 2-(3,4-dihydroisoquinolin-2(1H)-yl)-N-hydroxy-1,3-benzoxazole-5-carboxamide] was run?
Answer: 48 nM

Question: O=C(NO)c1ccc2oc(-c3cccc(Br)c3)nc2c1 [Example 16, 2-(3-bromophenyl)-N-hydroxy-1,3-benzoxazole-5-carboxamide] was tested. Which IC50 did it give?
Answer: 7 nM

Question: With O=C(NO)c1ccc2nc(-c3ccc4[nH]nnc4c3)oc2c1 [Example 54, 2-(1H-Benzotriazol-5-yl)-N-hydroxy-1,3-benzoxazole-6-carboxamide] as the compound, how does the IC50 read?
Answer: 60 nM

Question: How did the IC50 turn out when COc1ncccc1-c1cc2cc(C(=O)NO)ccc2s1 [Example 97, N-hydroxy-2-(2-methoxypyridin-3-yl)-1-benzothiophene-5-carboxamide] was run?
Answer: 47 nM

Question: With C[C@@H]1CN(Cc2ccc(-c3nc4cc(C(=O)NO)ccc4o3)cc2)C[C@H](C)O1 [Example 207, 2-(4-{[(cis)-2,6-dimethylmorpholin-4-yl]methyl}phenyl)-N-hydroxy-1,3-benzoxazole-5-carboxamide trifluoroacetate] as the compound, how does the IC50 read?
Answer: 73 nM

Question: For Cc1noc(C)c1-c1ccc(-c2nc3cc(C(=O)NO)ccc3o2)cc1 [Example 181, 2-[4-(3,5-dimethylisoxazol-4-yl)phenyl]-N-hydroxy-1,3-benzoxazole-5-carboxamide], which IC50 is on record?
Answer: 31 nM

Question: CC(C)c1ccc(-c2nc3cc(C(=O)NO)cnc3o2)cc1 [Example 83, N-Hydroxy-2-[4-(1-methylethyl)phenyl][1,3]oxazolo[5,4-b]pyridine-6-carboxamide] was tested. Which IC50 did it give?
Answer: 25 nM

Question: Which IC50 does the source give for COc1cc(-c2cc3ccc(C(=O)NO)cc3s2)ccc1O [Example 150, N-hydroxy-2-(4-hydroxy-3-methoxyphenyl)-1-benzothiophene-6-carboxamide] here?
Answer: 53 nM

Question: With CS(=O)(=O)c1ccc(-c2ccc(-c3nc4cc(C(=O)NO)ccc4o3)cc2)cc1 [Example 180, N-hydroxy-2-[4′-(methylsulfonyl)biphenyl-4-yl]-1,3-benzoxazole-5-carboxamide] as the compound, how does the IC50 read?
Answer: 8 nM

Question: Which IC50 does the source give for O=C(NO)c1ccc2oc(N3CCC(Cc4ccccc4)CC3)nc2c1 [Example 48, 2-(4-benzylpiperidin-1-yl)-N-hydroxy-1,3-benzoxazole-5-carboxamide] here?
Answer: 73 nM

Question: How did the IC50 turn out when COc1ccc(-c2nc3cc(C(=O)NO)ccc3s2)cc1 [Example 78, N-hydroxy-2-(4-methoxyphenyl)-1,3-benzothiazole-5-carboxamide] was run?
Answer: 12 nM

Question: How did the IC50 turn out when O=C(NO)c1ccc2oc(-c3ccc(-c4ccc(CN5CCCCC5)cc4)cc3)nc2c1 [Example 30, N-Hydroxy-2-[4′-(piperidin-1-ylmethyl)biphenyl-4-yl]-1,3-benzoxazole-5-carboxamide trifluoroacetate] was run?
Answer: 14 nM

Question: For COc1ccc(-c2nc3ccc(C(=O)NO)cc3o2)cc1 [Example 52, N-hydroxy-2-(4-methoxyphenyl)-1,3-benzoxazole-6-carboxamide], which IC50 is on record?
Answer: 17 nM

Question: Which IC50 does the source give for O=C(NO)c1ccc2nc(Nc3cccc(-c4ccccc4)c3)[nH]c2c1 [Example 136, 2-([1,1′-biphenyl]-3-ylamino)-N-hydroxy-1H-benzo[d]imidazole-6-carboxamide] here?
Answer: 72 nM

Question: With CC(C)c1ccc(Nc2nc3cc(C(=O)NO)ccc3n2C)cc1 [Example 138, N-hydroxy-2-((4-isopropylphenyl)amino)-1-methyl-1H-benzo[d]imidazole-5-carboxamide] as the compound, how does the IC50 read?
Answer: 22 nM

Question: How did the IC50 turn out when O=C(NO)c1ccc2oc(-c3ccc(-c4ccccc4)nc3)nc2c1 [Example 161, N-Hydroxy-2-(6-phenylpyridin-3-yl)-1,3-benzoxazole-5-carboxamide trifluoroacetate] was run?
Answer: 22 nM

Question: Which IC50 does the source give for O=C(NO)c1ccc2sc(Cc3ccc(-c4ccncc4)cc3)nc2c1 [Example 272, N-Hydroxy-2-(4-pyridin-4-ylbenzyl)-1,3-benzothiazole-5-carboxamide trifluoroacetate] here?
Answer: 6 nM

Question: Which IC50 does the source give for O=C(NO)c1ccc2oc(-c3cccc(O)c3)nc2c1 [Example 220, N-hydroxy-2-(3-hydroxyphenyl)-1,3-benzoxazole-5-carboxamide] here?
Answer: 32 nM

Question: For O=C(NO)c1ccc2cc(-c3cccc(O)c3)oc2c1 [Example 284, N-hydroxy-2-(3-hydroxypheny)-1-benzofuran-6-carboxamide], which IC50 is on record?
Answer: 4 nM

Question: For COc1ccc(-c2nc3cc(C(=O)NO)ccc3o2)cc1 [Example 11, N-hydroxy-2-(4-methoxyphenyl)-1,3-benzoxazole-5-carboxamide], which IC50 is on record?
Answer: 8 nM

Question: Which IC50 does the source give for O=C(NO)c1ccc2oc(NC3CCCCCCC3)nc2c1 [Example 232, 2-(cyclooctylamino)-N-hydroxy-1,3-benzoxazole-5-carboxamide] here?
Answer: 51 nM

Question: Which IC50 does the source give for COc1ccccc1N1CCN(c2ccc(-c3nc4cc(C(=O)NO)ccc4o3)cn2)CC1 [Example 160, N-hydroxy-2-{6-[4-(2-methoxyphenyl)piperazin-1-yl]pyridin-3-yl}-1,3-benzoxazole-5-carboxamide trifluoroacetate] here?
Answer: 21 nM

Question: O=C(NO)c1ccc2oc(-c3ccc(N4CCOCC4)nc3)nc2c1 [Example 15, N-hydroxy-2-(6-morpholin-4-ylpyridin-3-yl)-1,3-benzoxazole-5-carboxamide] was tested. Which IC50 did it give?
Answer: 28 nM

Question: With O=C(NO)c1ccc2sc(-c3cc(F)ccc3O)cc2c1 [Example 105, 2-(5-fluoro-2-hydroxyphenyl)-N-hydroxy-1-benzothiophene-5-carboxamide] as the compound, how does the IC50 read?
Answer: 37 nM

Question: O=C(NO)c1ccc2oc(-c3ccc(-c4ccccc4)cc3F)nc2c1 [Example 173, 2-(3-Fluorobiphenyl-4-yl)-N-hydroxy-1,3-benzoxazole-5-carboxamide] was tested. Which IC50 did it give?
Answer: 20 nM

Question: Which IC50 does the source give for CC(C)(C)c1ccc(OCc2cc3cc(C(=O)NO)ccc3o2)cc1 [Example 163, 2-[(4-tert-Butylphenoxy)methyl]-N-hydroxy-1-benzofuran-5-carboxamide] here?
Answer: 58 nM

Question: How did the IC50 turn out when O=C(NO)c1ccc2oc(-c3ccc4[nH]nnc4c3)nc2c1 [Example 39, 2-(1H-Benzotriazol-5-yl)-N-hydroxy-1,3-benzoxazole-5-carboxamide] was run?
Answer: 26 nM

Question: With O=C(NO)c1ccc2oc(Nc3cccc(OCc4ccccc4)c3)nc2c1 [Example 47, 2-{[3-(benzyloxy)phenyl]amino}-N-hydroxy-1,3-benzoxazole-5-carboxamide] as the compound, how does the IC50 read?
Answer: 31 nM

Question: How did the IC50 turn out when Cn1c(Nc2cccc(OCc3ccccc3)c2)nc2cc(C(=O)NO)ccc21 [Example 142, 2-((3-(benzyloxy)phenyl)amino)-N-hydroxy-1-methyl-1H-benzo[d]imidazole-5-carboxamide] was run?
Answer: 1 nM

Question: O=C(NO)c1ccc2oc(N(Cc3ccccc3)c3ccccc3)nc2c1 [Example 241, 2-[benzyl(phenyl)amino]-N-hydroxy-1,3-benzoxazole-5-carboxamide] was tested. Which IC50 did it give?
Answer: 27 nM
